Laboratory results: article PMC8162731 (ACS chemical biology, 2020)

Molecular target: SnDHAD (Synechocystis sp. PCC 6803, UniProt P74689)
Experiment: DHAD activity inhibition assay
Format: biochemical
Conditions: read-out: % inhibition at 0.5 mM

Sequence of SnDHAD (P74689 whole entry): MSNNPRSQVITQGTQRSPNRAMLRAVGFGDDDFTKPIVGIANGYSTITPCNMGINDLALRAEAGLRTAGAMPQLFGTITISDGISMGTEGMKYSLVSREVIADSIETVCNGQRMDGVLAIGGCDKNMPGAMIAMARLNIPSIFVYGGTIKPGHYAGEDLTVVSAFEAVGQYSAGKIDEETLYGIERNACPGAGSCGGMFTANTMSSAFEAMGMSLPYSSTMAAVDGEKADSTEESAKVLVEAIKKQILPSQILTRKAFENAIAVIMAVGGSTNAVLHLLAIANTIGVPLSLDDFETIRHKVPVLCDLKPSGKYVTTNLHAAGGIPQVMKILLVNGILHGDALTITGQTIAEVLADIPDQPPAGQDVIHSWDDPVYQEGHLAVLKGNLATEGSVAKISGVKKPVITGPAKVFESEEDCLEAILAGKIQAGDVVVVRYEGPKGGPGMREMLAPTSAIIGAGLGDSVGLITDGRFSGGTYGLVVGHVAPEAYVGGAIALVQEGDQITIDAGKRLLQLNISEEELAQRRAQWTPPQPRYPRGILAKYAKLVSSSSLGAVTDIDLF

inhibition at 500 µM: ~35%
Structure (SMILES): O=C(O)C(O)C(=O)O [Tartronic acid]
